Laboratory results as given in the supplement of paper PMC7661543.
± gives the standard deviation of the averaged measurements.

What was measured:
Test in all cases: relative cell number vs DMSO control (72 h) (% of DMSO); higher = less growth inhibition (more cells)
Conditions in all cases: sgRNA knockout: sgNT
MDA-MB-231 = tested on: MDA-MB-231
Procedure: (§1)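 QMAP-Seq: a pool of 5 breast cancer cell lines (ZR-75-1, SKBR3, HCC-38, MDA-MB-231, BT-20), each carrying 12 doxycycline-inducible Cas9 sgRNA perturbations (11 knockouts plus non-targeting sgNT), was treated with compounds for 72 h at four 10-fold doses (10 nM-10 uM or 1 nM-1 uM range). Barcodes were amplified and sequenced, and cell number was interpolated from 293T spike-in standard curves. The result is expressed as % of the median of DMSO wells. Two biological replicates.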

BT-20 = tested on: BT-20
Procedure: as §1

ZR-75-1 = tested on: ZR-75-1
Procedure: as §1

SKBR3 = tested on: SKBR3
Procedure: as §1

HCC-38 = tested on: HCC-38
Procedure: as §1

Row | SMILES | relative cell number (MDA-MB-231; 10 nM) | relative cell number (MDA-MB-231; 100 nM) | relative cell number (MDA-MB-231; 1000 nM) | relative cell number (MDA-MB-231; 10000 nM) | relative cell number (BT-20; 10 nM) | relative cell number (BT-20; 100 nM) | relative cell number (BT-20; 1000 nM) | relative cell number (BT-20; 10000 nM) | relative cell number (ZR-75-1; 10 nM) | relative cell number (ZR-75-1; 100 nM) | relative cell number (ZR-75-1; 1000 nM) | relative cell number (ZR-75-1; 10000 nM) | relative cell number (SKBR3; 10 nM) | relative cell number (SKBR3; 100 nM) | relative cell number (SKBR3; 1000 nM) | relative cell number (SKBR3; 10000 nM) | relative cell number (HCC-38; 10 nM) | relative cell number (HCC-38; 100 nM) | relative cell number (HCC-38; 1000 nM) | relative cell number (HCC-38; 10000 nM)
1 | CCOC(=O)c1ccc(N2NC(=O)C(=Cc3ccc([N+](=O)[O-])o3)C2=O)cc1 [PYR41] | 133 ± 62 | 106 ± 11 | 87.6 ± 62 | 111 ± 6.8 | 93.7 ± 24 | 101 ± 13 | 103 ± 17 | 102.7 ± 0.59 | 125 ± 29 | 72.9 ± 28 | 100 ± 1.6 | 97.4 ± 40 | 106 ± 8.4 | 83.5 ± 17 | 98.3 ± 18 | 64.5 ± 46 | 85.8 ± 4.7 | 89.9 ± 13 | 101.7 ± 0.8 | 84.8 ± 5.1
2 | CC(=O)O[C@H]1C(=O)[C@@]2(C)[C@H]([C@H](OC(=O)c3ccccc3)[C@]3(O)C[C@H](OC(=O)[C@H](O)[C@@H](NC(=O)c4ccccc4)c4ccccc4)C(C)=C1C3(C)C)[C@]1(OC(C)=O)CO[C@@H]1C[C@@H]2O [Paclitaxel] | 28.8 ± 15 | 15.6 ± 2.2 | 21.4 ± 7.8 | 29.9 ± 10 | 57.9 ± 10 | 18.7 ± 15 | 25.7 ± 9.2 | 47.3 ± 15 | 28.3 ± 2 | 18.6 ± 18 | 21.6 ± 3.9 | 43.8 ± 17 | 10.2 ± 2.9 | 6.23 ± 1.4 | 11.1 ± 1.4 | 16.4 ± 9.7 | 31.4 ± 5.5 | 14.4 ± 5.1 | 18 ± 2.9 | 25.4 ± 3.6
3 | CC(=O)c1c(C)c2cnc(Nc3ccc(N4CCNCC4)cn3)nc2n(C2CCCC2)c1=O [Palbociclib] | 97.3 ± 57 | 30.6 ± 16 | 22.5 ± 2.1 | 22.1 ± 6 | 87.4 ± 11 | 41.8 ± 13 | 45.8 ± 1.1 | 53.889 ± 0.041 | 66.5 ± 20 | 36.6 ± 2.5 | 30 ± 3.5 | 29.9 ± 3 | 90.3 ± 0.5 | 52.1 ± 5.9 | 51.3 ± 4.3 | 43.8 ± 16 | 74.3 ± 13 | 37.4 ± 10 | 44.4 ± 2 | 42.2 ± 0.9
4 | C=C1C(=O)O[C@H]2[C@H]1CC/C(C)=C/CC[C@@]1(C)O[C@@H]21 [Parthenolide] | 130 ± 77 | 123 ± 43 | 126 ± 11 | 124.5 ± 0.77 | 108 ± 14 | 101 ± 3.3 | 93.2 ± 14 | 96.5 ± 20 | 94.9 ± 35 | 128 ± 21 | 71.5 ± 53 | 122 ± 3.6 | 98.3 ± 24 | 122 ± 28 | 96.6 ± 16 | 98.9 ± 4.2 | 114 ± 6.1 | 92.6 ± 2 | 98.6 ± 16 | 113 ± 13
5 | Cc1ccc(Nc2nccc(N(C)c3ccc4c(C)n(C)nc4c3)n2)cc1S(N)(=O)=O [Pazopanib] | 97 ± 39 | 90.5 ± 16 | 88.68 ± 0.85 | 66.1 ± 19 | 102 ± 15 | 86.8 ± 3.6 | 110 ± 3.6 | 73.8 ± 16 | 88.8 ± 3 | 52.6 ± 23 | 60.8 ± 12 | 30.5 ± 1.7 | 96.1 ± 6.7 | 48.9 ± 20 | 93.1 ± 34 | 49.1 ± 5.4 | 95.4 ± 1.7 | 95.2 ± 1.4 | 95 ± 15 | 56.8 ± 1.5
